Here are results for three molecules from patent US20080076824A1, “Compounds That Inhibit Replication Of Human Immunodeficiency Virus” (priority 2004, published 2008).

Series [1] is described as follows: Cytotoxicity (CC50) in MT-4 cells. In kind it is cell-based. Conditions: human, MT-4 cells.
In series [2] the test system is Herpes simplex virus-1 TK^− KOS ACV^r. The settings on record: read-out: Minimum inhibitory concentration Herpes simplex virus-1 TK^− KOS ACV^r; HEL; reduces virus-induced cytopathogenicity by 50%. (In general: Damage to the host cells serves as the signal in cytopathic effect assays.)
Series [3] has as its system Herpes simplex virus-1 (KOS). Conditions: read-out: Minimum inhibitory concentration Herpes simplex virus-1 (KOS); HEL; reduces virus-induced cytopathogenicity by 50%.
Series [4] deals with glycine oxidase from Bacillus subtilis (Bacillus subtilis, UniProt O31616).
Chain of glycine oxidase from Bacillus subtilis (O31616 whole entry): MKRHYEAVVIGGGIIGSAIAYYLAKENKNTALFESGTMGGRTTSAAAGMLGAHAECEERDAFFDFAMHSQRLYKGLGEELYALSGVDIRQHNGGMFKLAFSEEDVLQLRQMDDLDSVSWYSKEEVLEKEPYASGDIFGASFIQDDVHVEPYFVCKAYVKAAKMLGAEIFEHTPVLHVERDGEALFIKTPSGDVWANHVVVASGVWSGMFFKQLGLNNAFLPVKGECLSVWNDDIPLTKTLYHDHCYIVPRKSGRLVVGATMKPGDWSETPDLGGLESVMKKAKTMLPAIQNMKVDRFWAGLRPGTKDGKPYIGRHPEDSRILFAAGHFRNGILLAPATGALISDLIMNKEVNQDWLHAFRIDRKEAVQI
The next series has as its system HIV-1 (NL4.3). The settings on record: read-out: EC50 HIV-1 NL3.4; CEM cell cultures, syncytia formation.
In a further series the test system is Reovirus-1. Conditions: read-out: Minimum inhibitory concentration Reovirus-1; Vero; reduces virus-induced cytopathogenicity by 50%.
The subject of another series is Vaccinia virus. The settings on record: read-out: Minimum inhibitory concentration Vaccinia virus; HEL; reduces virus-induced cytopathogenicity by 50%.
A short description of series [5]: Conversion of radiolabeled G-NH2 to modified G-NH2 by human sera. Conditions: 10% human serum in PBS, 37° C., 24 hours, each of 10 samples. Format: in vitro ADME. The protocol: Several lots of human sera and fetal bovine sera were analyzed for their ability to convert G-NH2 to modified G-NH2. Radiolabeled cation exchange HPLC purified G-NH2 (see EXAMPLE 3) was incubated with the various sera at a 10% final concentration in PBS at 37° C. for 15 minutes and 1, 6, 24, or 72 hours. Subsequently, the amount of radiolabeled modified G-NH2 was evaluated using the cation exchange HPLC approach described above.

Series [6] has as its system Coxsackie virus B4. The series can be described thus: Antiviral activity in HeLa cell cultures, Coxsackie virus B4. Format: cell-based. Conditions: reduces virus-induced cytopathogenicity by 50%, read-out: Minimum inhibitory concentration Coxsackie virus B4. The protocol: (§1) The cytotoxicity and antiviral activity of various concentrations of G-NH2 and GPG-NH2 were evaluated in cell cultures that were infected with various types of viruses. Conventional host cell culture, viral infection, and infectivity analysis for each different type of cell and virus were followed. Compounds that were known to inhibit replication of the particular types of viruses analyzed were used as controls.

The next series relates to MT-4 cells. The series is described as follows: Cytotoxicity (CC50) in MT-4 cells. In kind it is cell-based.
Series [7] relates to Herpes simplex virus-2 (G). Conditions: read-out: Minimum inhibitory concentration Herpes simplex virus-2 (G); HEL; reduces virus-induced cytopathogenicity by 50%.
The subject of series [8] is Coxsackie virus B4. The series can be described thus: Antiviral activity in Vero cell cultures, Coxsackie virus B4. In kind it is cell-based. Conditions: reduces virus-induced cytopathogenicity by 50%, read-out: Minimum inhibitory concentration Coxsackie virus B4. The protocol:
as §1

Series [9] concerns Vesicular stomatitis virus. The settings on record: read-out: Minimum inhibitory concentration Vesicular stomatitis virus; HEL; reduces virus-induced cytopathogenicity by 50%.
In another series the test system is Parainfluenza-3 virus. Conditions: read-out: Minimum inhibitory concentration Parainfluenza-3 virus; Vero; reduces virus-induced cytopathogenicity by 50%.
[10] abbreviates: read-out: 50% effective concentration, HIV replication in CEM cell cultures.
Setting [11] is: read-out: EC50 (CEM) HIV-1 (IIIB), Table 19.
Setting [12] is: read-out: EC50 HIV-1 IIIB, CEM cell cultures, syncytia formation, Table 1.

Counter-ions that a name gives are not always drawn. Like-named read-outs stand apart in the source and are kept apart here. Residues, ends and D or L forms follow the SMILES beside them.

The CC50 is the concentration giving 50% cytotoxicity. Lower therefore signals harm at low concentration. In turn, `NC(=O)C(N)O` (stereo not drawn) [AlphaHGA, α-Hydroxy-glycinamide hydrochloride] had a CC50 in [1] of 372 ± 107 µM.
In the case of `NCC(N)=O` [G-NH2, glycinamide], the EC50 is over 2 mM in series [2]; over 2 mM in [3]; 45 ± 7.1 µM in the series on HIV-1 (NL4.3); over 2 mM in the series on Reovirus-1; over 2 mM with Vaccinia virus; over 2 mM in the series with Coxsackie virus B4 [6]. Further, the EC50 in the series on HIV-1 (IIIB) (setting [10]) is about 30 µM; in the series with HIV-1 (IIIB) (setting [11]) it was 25 ± 7.1 µM; with HIV-1 (IIIB) (read-out: EC50 (CEM) HIV-1(IIIB), Table 20), 25 ± 7.1 µM; in the series on HIV-1 (IIIB) (setting [12]), 32 ± 7.6 µM; in the series on HIV-1 (IIIB) (read-out: EC50 against HIV-1(IIIB), CEM cell cultures, Table 2), about 21.3 µM; with HIV-1 (IIIB) (read-out: EC50 against HIV-1(IIIB), CEM cell cultures, Table 2, listed as Glycinamide) it was 21.3 ± 16.3 µM. Also, the EC50 (in series [7]; in the series with Coxsackie virus B4 [8]; in series [9]; in the series with Parainfluenza-3 virus) was over 2 mM throughout. The “conversion of G-NH2 to Metabolite X” value in [4] is given as “unable to convert”. Moreover, in series [5], the “conversion of G-NH2 to modified G-NH2” value is on record as “less than 10%”. The “ability to inhibit the replication of HIV” value with HIV-1 (IIIB) (G-NH2 in medium with heat inactivated serum (10% fetal bovine serum, 95° C., 30 minutes)) is “lost its ability to inhibit the replication of HIV”. In addition, the “inhibition of replication of HIV” value with HIV-1 (IIIB) (boiled fetal bovine serum or human serum samples, results the experiments will show) was “does not”. In the series with MT-4 cells, this molecule registered a CC50 of over 2 mM.
With `NCC(=O)N1CCC[C@H]1C(=O)NCC(N)=O` [GPG-NH2, glycylprolylglycinamide] (H-Gly-Pro-Gly-NH2), the EC50 is over 0.4 mM in [2]; over 0.4 mM in series [3]; 50 µM with HIV-1 (NL4.3); over 0.4 mM with Reovirus-1; over 0.4 mM in the series on Vaccinia virus; over 0.4 mM in the series with Coxsackie virus B4 [6]. In addition, the EC50 is about 30 µM in the series on HIV-1 (IIIB) (setting [10]); 30 µM in the series with HIV-1 (IIIB) (setting [11]); 35 ± 8.7 µM in the series with HIV-1 (IIIB) (setting [12]); over 0.4 mM in series [7]; over 0.4 mM in the series on Coxsackie virus B4 [8]; over 0.4 mM in series [9]. Also, the EC50 in the series with Parainfluenza-3 virus was over 0.4 mM.
